Results: patent publication US20250263424A1, “KRAS INHIBITORS” (Bristol-Myers Squibb Company, priority 2022, published 2025)

Each compound was assayed against Recombinant GMPPNP-loaded KRAS G12C (KRAS-G12C(ON), active form) (Homo sapiens, UniProt P01116, G12C) (assay: KRAS G12C RAF Disruption Assay (HTRF)). Settings: GMPPNP-loaded KRAS G12C 5 nM, GST-RAF1 RBD 9 nM, values given in μM, read-out: KRASG12C RAF Disruption Assay (IC50).
Type: biochemical
Experimental: This is a functional assay that measures activity of compounds against […]., the active form of KRAS G12C. Recombinant GMPPNP-loaded KRAS G12C (5 nM) was treated with compound at room temperature for 20 minutes in assay buffer (50 mM Tris pH 7.5, 100 mM NaCl, 1 mM MgCl2, 1 mM DTT, 100 μg/ml BSA). Recombinant GST-RAF1 RBD (9 nM) was added, and the reaction mixture was incubated for 20 minutes. SA-Tb (0.25 nM) was added, and the reaction mixture was incubated for 3 hours. HTRF signal was measured (PerkinElmer Envision), the signal ratio (λem 520/λem 495) was calculated, and IC50 values were calculated from the dose-response curve.

Sequence of Recombinant GMPPNP-loaded KRAS G12C (KRAS-G12C(ON), active form) (P01116 1-188 isoform P01116-2 G12C): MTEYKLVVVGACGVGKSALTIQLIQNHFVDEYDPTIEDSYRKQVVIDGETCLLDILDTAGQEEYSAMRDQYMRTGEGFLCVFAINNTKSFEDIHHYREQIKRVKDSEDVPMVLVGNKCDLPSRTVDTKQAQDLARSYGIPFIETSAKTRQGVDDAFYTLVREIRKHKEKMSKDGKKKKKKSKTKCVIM

| IC50 | Compound |
| --- | --- |
| 1.9 µM | Cc1cc(N)nc(-c2c(Cl)cc3c(N4CCC5(CN(C(=O)/C(F)=C/c6nccs6)C5)C4)nc(OC[C@@]45CCCN4C[C@H](F)C5)nc3c2F)c1C(F)(F)F (atropisomer, axis not shown; (M)) [Example 9, (Z)-1-(6-((7M)-7-(6-amino-4-methyl-3-(trifluoromethyl)pyridin-2-yl)-6-chloro-8-fluoro-2-(((2R,7aS)-2-fluorotetrahydro-1H-pyrrolizin-7a(5H)-yl)methoxy)quinazolin-4-yl)-2,6-diazaspiro[3.4]octan-2-yl)-2-fluoro-3-(thiazol-2-yl)prop-2-en-1-one] |
| 1.1 µM | Cc1cc(N)nc(-c2c(Cl)cc3c(N[C@H]4C[C@@H](NC(=O)/C(F)=C/c5nccs5)C4)nc(OC[C@]45CCCN4C[C@H](F)C5)nc3c2F)c1C(F)(F)F (atropisomer, axis not shown; (M)) [Example 13, (Z)-N-((1S,3s)-3-(((7M)-7-(6-amino-4-methyl-3-(trifluoromethyl)pyridin-2-yl)-6-chloro-8-fluoro-2-(((2R,7aR)-2-fluorotetrahydro-1H-pyrrolizin-7a(5H)-yl)methoxy)quinazolin-4-yl)amino)cyclobutyl)-2-fluoro-3-(thiazol-2-yl)acrylamide] |
| 1.33 µM | Cc1cc(N)nc(-c2c(Cl)cc3c(N4CCN(C(=O)/C(F)=C/c5nccs5)[C@@H](CC(N)=O)C4)nc(OC[C@@H]4CCCN4C)nc3c2F)c1C(F)(F)F (atropisomer, axis not shown; (M)) [Example 47, 2-[(2S)-4-[(7M)-7-[6-amino-4-methyl-3-(trifluoromethyl)pyridin-2-yl]-6-chloro-8-fluoro-2-{[(2S)-1-methylpyrrolidin-2-yl]methoxy}quinazolin-4-yl]-1-[(2Z)-2-fluoro-3-(thiazol-2-yl)prop-2-enoyl]piperazin-2-yl]acetamide] |
| 2.59 µM | Cc1cc(N)nc(-c2c(Cl)cc3c(N4C[C@]5(NC(=O)/C(F)=C/c6nccs6)CC[C@H]4C5)nc(OC[C@@H]4CCCN4C)nc3c2F)c1C(F)(F)F (atropisomer, axis not shown; (M)) [Example 48, (2Z)-N-[(1S,4S)-2-[(7M)-7-[6-amino-4-methyl-3-(trifluoromethyl)pyridin-2-yl]-6-chloro-8-fluoro-2-{[(2S)-1-methylpyrrolidin-2-yl]methoxy}quinazolin-4-yl]-2-azabicyclo[2.2.1]heptan-4-yl]-2-fluoro-3-(thiazol-2-yl)prop-2-enamide] |
| 2.26 µM | Cc1cc(N)nc(-c2c(Cl)cc3c(N4C[C@H]5CC[C@@H]4[C@@H]5NC(=O)/C(F)=C/c4nccs4)nc(OC[C@@H]4CCCN4C)nc3c2F)c1C(F)(F)F (atropisomer, axis not shown; (M)) [Example 49, (2Z)-N-[(1R,4R,7R)-2-[(7M)-7-[6-amino-4-methyl-3-(trifluoromethyl)pyridin-2-yl]-6-chloro-8-fluoro-2-{[(2S)-1-methylpyrrolidin-2-yl]methoxy}quinazolin-4-yl]-2-azabicyclo[2.2.1]heptan-7-yl]-2-fluoro-3-(1,3-thiazol-2-yl)prop-2-enamide] |
| 5.8 µM | Cc1cc(N)nc(-c2c(Cl)cc3c(N4[C@@H]5CC[C@H]4[C@H]4CN(C(=O)/C(F)=C/c6nccs6)C[C@H]45)nc(OC[C@]45CCCN4C[C@H](F)C5)nc3c2F)c1C(F)(F)F (atropisomer, axis not shown; (aR)) [Example 17, (Z)-1-((3aR,4S,7R,7aS)-8-((7M)-7-(6-amino-4-methyl-3-(trifluoromethyl)pyridin-2-yl)-6-chloro-8-fluoro-2-(((2R,7aR)-2-fluorotetrahydro-1H-pyrrolizin-7a(5H)-yl)methoxy)quinazolin-4-yl)octahydro-2H-4,7-epiminoisoindol-2-yl)-2-fluoro-3-(thiazol-2-yl)prop-2-en-1-one] |
| 5.5 µM | C[C@H]1CN(C(=O)/C(F)=C/c2ccccn2)CCN1c1nc(OC[C@@H]2CCCN2C)nc2c(F)c(-c3cccc4cccc(Cl)c34)c(Cl)cc12 (single isomer, unassigned) [Example 3] |
| 2.7 µM | Cc1cc(N)nc(-c2c(Cl)cc3c(N4CC5CCC(C4)N5C(=O)/C(F)=C/c4ccccn4)nc(OC[C@]45CCCN4C[C@H](F)C5)nc3c2F)c1C(F)(F)F (single isomer, unassigned) [Example 5] |
| 93.8 µM | Cc1cc(N)nc(-c2c(Cl)cc3c(N4CC5CN(C(=O)/C(F)=C/c6nccs6)C5C4)nc(OC[C@]45CCCN4C[C@H](F)C5)nc3c2F)c1C(F)(F)F (single isomer, unassigned) [Example 15, Isomer 1] |
| 47.4 µM | Cc1cc(N)nc(-c2c(Cl)cc3c(N4CC5CN(C(=O)/C(F)=C/c6nccs6)C5C4)nc(OC[C@]45CCCN4C[C@H](F)C5)nc3c2F)c1C(F)(F)F (single isomer, unassigned) [Example 15, Isomer 2] |
| 16.5 µM | C#Cc1c(F)ccc2cc(O)cc(-c3c(Cl)cc4c(N5CC6CCC(C5)N6C(=O)/C(F)=C/c5ccccn5)nc(OC[C@@H]5CCCN5C)nc4c3F)c12 (single isomer, unassigned) [Example 20, Isomer 1] |
| > 100 µM | C#Cc1c(F)ccc2cc(O)cc(-c3c(Cl)cc4c(N5CC6CCC(C5)N6C(=O)/C(F)=C/c5ccccn5)nc(OC[C@@H]5CCCN5C)nc4c3F)c12 (single isomer, unassigned) [Example 20, Isomer 2] |
| 14.1 µM | Cc1cc(N)nc(-c2c(Cl)cc3c(N4CCC5C4CCN5C(=O)/C(F)=C/c4nccs4)nc(OC[C@]45CCCN4C[C@H](F)C5)nc3c2F)c1C(F)(F)F (single isomer, unassigned) [Example 25, Isomer 1] |
| 67.6 µM | Cc1cc(N)nc(-c2c(Cl)cc3c(N4CCC5C4CCN5C(=O)/C(F)=C/c4nccs4)nc(OC[C@]45CCCN4C[C@H](F)C5)nc3c2F)c1C(F)(F)F (single isomer, unassigned) [Example 25, Isomer 2] |
| 3.37 µM | Cc1cc(N)nc(-c2c(Cl)cc3c(N4CCC5C(CCN5C(=O)/C(F)=C/c5nccs5)C4)nc(OC[C@]45CCCN4C[C@H](F)C5)nc3c2F)c1C(F)(F)F (single isomer, unassigned) [Example 26, Isomer 1] |

Same assay, conditions: GMPPNP-loaded KRAS G12C 5 nM, GST-RAF1 RBD 9 nM, values in nM, read-out: KRASG12C RAF Disruption Assay (IC50)

| IC50 | Compound |
| --- | --- |
| 2.6 µM | Cc1cc(N)nc(-c2c(Cl)cc3c(N4C[C@]5(NC(=O)/C(F)=C/c6nccs6)CC[C@H]4C5)nc(OC[C@@H]4CCCN4C)nc3c2F)c1C(F)(F)F (atropisomer, axis not shown) [Example 69, (Z)-N-((1S,4S)-2-(7M-(6-amino-4-methyl-3-(trifluoromethyl)pyridin-2-yl)-6-chloro-8-fluoro-2-(((S)-1-methylpyrrolidin-2-yl)methoxy)quinazolin-4-yl)-2-azabicyclo[2.2.1]heptan-4-yl)-2-fluoro-3-(thiazol-2-yl)acrylamide] |
| 0.19 µM | Cc1cc(N)nc(-c2c(Cl)cc3c(N4C[C@]5(NC(=O)/C(F)=C/c6ccccn6)CC[C@H]4C5)nc(OC[C@]45CCCN4C[C@H](F)C5)nc3c2F)c1C(F)(F)F (atropisomer, axis not shown; (M)) [Example 43, (2Z)-N-[(1S,4S)-2-[(7M)-2-{[(2R,7aR)-2-fluoro-hexahydro-1H-pyrrolizin-7a-yl]methoxy}-7-[6-amino-4-methyl-3-(trifluoromethyl)pyridin-2-yl]-6-chloro-8-fluoroquinazolin-4-yl]-2-azabicyclo[2.2.1]heptan-4-yl]-2-fluoro-3-(pyridin-2-yl)prop-2-enamide] |
